# Structures can show the parent of a compound that is named as a salt.
# How the values were obtained:
# D2 receptor = D2 receptor (Homo sapiens, UniProt P14416); test: in vitro binding to D2 receptor (screening protocol); conditions: read-out: Ki ± SD D2
# Experimental: (§1) The ligands obtained in the synthesis (10a–r) were tested in vitro for binding to D2, 5-HT1A, 5-HT2A, 5-HT6, and 5-HT7 receptors on the basis of the screening protocol described previously (Table 6).
# 5-HT6 receptor = 5-HT6 receptor (Homo sapiens, UniProt P50406); test: in vitro binding to 5-HT6 receptor (screening protocol); conditions: read-out: Ki ± SD 5-HT6
# 5-HT6 receptor, sequence (P50406 whole entry): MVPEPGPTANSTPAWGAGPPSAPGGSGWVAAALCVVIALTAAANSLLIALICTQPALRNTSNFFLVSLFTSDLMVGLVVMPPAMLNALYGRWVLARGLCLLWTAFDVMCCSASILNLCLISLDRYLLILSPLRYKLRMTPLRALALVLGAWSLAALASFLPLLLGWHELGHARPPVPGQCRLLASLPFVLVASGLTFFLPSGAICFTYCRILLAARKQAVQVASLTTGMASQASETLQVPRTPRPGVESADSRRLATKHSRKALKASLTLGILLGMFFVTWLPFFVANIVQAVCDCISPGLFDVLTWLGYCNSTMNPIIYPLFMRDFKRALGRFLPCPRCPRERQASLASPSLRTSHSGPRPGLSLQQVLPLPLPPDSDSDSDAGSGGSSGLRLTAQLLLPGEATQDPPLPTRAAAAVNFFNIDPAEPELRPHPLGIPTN
# Experimental: as §1
# 5-HT2A receptor = 5-HT2A receptor (Homo sapiens, UniProt P28223); test: in vitro binding to 5-HT2A receptor (screening protocol); conditions: read-out: Ki ± SD 5-HT2A
# 5-HT2A receptor, sequence (P28223 whole entry): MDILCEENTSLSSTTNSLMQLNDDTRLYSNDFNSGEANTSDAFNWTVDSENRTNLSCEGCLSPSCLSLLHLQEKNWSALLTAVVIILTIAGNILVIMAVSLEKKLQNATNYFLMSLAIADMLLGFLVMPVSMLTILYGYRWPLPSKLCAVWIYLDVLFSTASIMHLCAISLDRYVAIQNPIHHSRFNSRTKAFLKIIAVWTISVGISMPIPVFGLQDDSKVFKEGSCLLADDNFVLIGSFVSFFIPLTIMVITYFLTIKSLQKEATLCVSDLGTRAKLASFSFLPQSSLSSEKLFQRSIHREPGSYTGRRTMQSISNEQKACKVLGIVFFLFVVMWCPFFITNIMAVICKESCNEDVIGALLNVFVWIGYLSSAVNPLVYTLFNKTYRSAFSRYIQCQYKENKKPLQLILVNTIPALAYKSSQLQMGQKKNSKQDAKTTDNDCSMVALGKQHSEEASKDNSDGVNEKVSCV
# Experimental: as §1
# 5-HT7 receptor = 5-HT7 receptor (Homo sapiens, UniProt P34969); test: in vitro binding to 5-HT7 receptor (screening protocol); conditions: read-out: Ki ± SD 5-HT7
# 5-HT7 receptor, sequence (P34969 whole entry): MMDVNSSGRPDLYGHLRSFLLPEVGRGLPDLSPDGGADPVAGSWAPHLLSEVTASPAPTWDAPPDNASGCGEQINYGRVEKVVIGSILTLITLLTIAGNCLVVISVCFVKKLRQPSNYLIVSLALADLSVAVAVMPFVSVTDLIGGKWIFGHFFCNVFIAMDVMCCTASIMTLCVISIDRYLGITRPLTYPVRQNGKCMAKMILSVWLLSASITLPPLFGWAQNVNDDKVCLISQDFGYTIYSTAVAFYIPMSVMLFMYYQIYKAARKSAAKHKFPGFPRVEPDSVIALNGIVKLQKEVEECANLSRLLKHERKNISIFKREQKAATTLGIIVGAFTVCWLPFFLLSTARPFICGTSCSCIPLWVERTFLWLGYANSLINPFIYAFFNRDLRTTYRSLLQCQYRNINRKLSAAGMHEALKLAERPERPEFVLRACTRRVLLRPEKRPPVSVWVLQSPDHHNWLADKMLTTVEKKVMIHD
# Experimental: as §1
# 5-HT1A receptor = target: T1, 5-HT1A receptor (Homo sapiens, UniProt P08908); test: in vitro binding to 5-HT1A receptor (screening protocol); conditions: read-out: Ki ± SD 5-HT1A
# T1 sequence (P08908 1-422): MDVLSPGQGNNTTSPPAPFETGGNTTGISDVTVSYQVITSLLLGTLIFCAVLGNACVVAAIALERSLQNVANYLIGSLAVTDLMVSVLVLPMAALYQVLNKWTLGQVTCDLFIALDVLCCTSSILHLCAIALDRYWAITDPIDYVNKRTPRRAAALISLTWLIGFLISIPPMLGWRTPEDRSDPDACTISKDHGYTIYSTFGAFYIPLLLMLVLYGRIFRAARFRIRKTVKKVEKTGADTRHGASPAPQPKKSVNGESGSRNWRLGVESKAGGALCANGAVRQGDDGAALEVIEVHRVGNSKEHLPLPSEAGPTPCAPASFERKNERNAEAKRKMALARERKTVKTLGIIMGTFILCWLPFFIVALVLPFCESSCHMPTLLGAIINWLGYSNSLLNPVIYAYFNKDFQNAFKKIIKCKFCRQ
# Experimental: as §1
# D2 receptor, sequence (P14416 whole entry): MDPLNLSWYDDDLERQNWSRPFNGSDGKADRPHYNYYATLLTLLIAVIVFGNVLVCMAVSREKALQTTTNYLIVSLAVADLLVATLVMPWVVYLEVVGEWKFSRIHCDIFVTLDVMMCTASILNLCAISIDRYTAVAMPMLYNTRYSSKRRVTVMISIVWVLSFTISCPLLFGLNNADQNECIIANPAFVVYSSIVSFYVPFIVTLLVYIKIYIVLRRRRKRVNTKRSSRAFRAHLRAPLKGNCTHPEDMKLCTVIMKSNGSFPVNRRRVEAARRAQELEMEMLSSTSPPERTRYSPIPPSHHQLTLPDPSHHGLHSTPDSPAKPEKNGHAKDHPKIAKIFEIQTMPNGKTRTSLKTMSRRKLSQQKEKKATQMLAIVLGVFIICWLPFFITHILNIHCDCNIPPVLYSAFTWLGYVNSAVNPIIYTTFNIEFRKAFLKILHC
smiles,measurement,setting,value
"O=c1n(CCCN2CCN(c3cccc(Cl)c3Cl)CC2)nc2ccccn12 [10a, 2-[3-[4-(2,3-dichlorophenyl)piperazin-1-yl]propyl]-[1,2,4]triazolo[4,3-a]pyridin-3-one hydrochloride]",Ki,D2 receptor,0.116 ± 0.019 µM
same,Ki,5-HT6 receptor,1.43 ± 0.294 µM
same,Ki,5-HT2A receptor,0.181 ± 0.022 µM
same,Ki,5-HT7 receptor,0.157 ± 0.013 µM
"O=c1n(CCCN2CCN(c3ccccc3F)CC2)nc2ccccn12 [10b, 2-[3-[4-(2-fluorophenyl)piperazin-1-yl]propyl]-[1,2,4]triazolo[4,3-a]pyridin-3-one hydrochloride]",Ki,D2 receptor,1.65 ± 0.203 µM
same,Ki,5-HT1A receptor,1.55 ± 0.314 µM
same,Ki,5-HT6 receptor,36.4 µM
same,Ki,5-HT2A receptor,0.969 ± 0.114 µM
same,Ki,5-HT7 receptor,7.42 ± 0.625 µM
"O=c1n(CCCN2CCN(c3ncccn3)CC2)nc2ccccn12 [10c, 2-[3-(4-pyrimidin-2-ylpiperazin-1-yl)propyl]-[1,2,4]triazolo[4,3-a]pyridin-3-one hydrochloride]",Ki,D2 receptor,0.122 ± 0.008 µM
same,Ki,5-HT1A receptor,0.459 ± 0.036 µM
same,Ki,5-HT6 receptor,3.25 ± 0.401 µM
same,Ki,5-HT2A receptor,0.178 ± 0.025 µM
same,Ki,5-HT7 receptor,0.174 ± 0.034 µM
"CCOc1ccccc1N1CCN(CCCn2nc3ccccn3c2=O)CC1 [10d, 2-[3-[4-(2-ethoxyphenyl)piperazin-1-yl]propyl]-[1,2,4]triazolo[4,3-a]pyridin-3-one hydrochloride]",Ki,D2 receptor,0.152 ± 0.017 µM
same,Ki,5-HT1A receptor,0.593 ± 0.081 µM
same,Ki,5-HT6 receptor,9.46 ± 1.14 µM
same,Ki,5-HT2A receptor,6.71 ± 0.952 µM
same,Ki,5-HT7 receptor,0.539 ± 0.068 µM
"O=c1n(CCCCCCN2CCN(c3cccc(Cl)c3)CC2)nc2ccccn12 [10e, 2-[6-[4-(3-chlorophenyl)piperazin-1-yl]hexyl]-[1,2,4]triazolo[4,3-a]pyridin-3-one hydrochloride]",Ki,D2 receptor,0.137 ± 0.011 µM
same,Ki,5-HT1A receptor,0.016 ± 0.002 µM
same,Ki,5-HT6 receptor,1.94 ± 0.281 µM
same,Ki,5-HT2A receptor,0.342 ± 0.048 µM
same,Ki,5-HT7 receptor,0.278 ± 0.019 µM
"O=c1n(CCCCCCN2CCN(c3ccccc3Cl)CC2)nc2ccccn12 [10f, 2-[6-[4-(2-chlorophenyl)piperazin-1-yl]hexyl]-[1,2,4]triazolo[4,3-a]pyridin-3-one hydrochloride]",Ki,D2 receptor,0.522 ± 0.071 µM
same,Ki,5-HT1A receptor,0.049 ± 0.004 µM
same,Ki,5-HT6 receptor,3.57 ± 0.563 µM
same,Ki,5-HT2A receptor,2.6 ± 0.318 µM
same,Ki,5-HT7 receptor,2.6 ± 0.359 µM
"O=c1n(CCCCCCN2CCN(c3ccc(Cl)cc3)CC2)nc2ccccn12 [10g, 2-[6-[4-(4-chlorophenyl)piperazin-1-yl]hexyl]-[1,2,4]triazolo[4,3-a]pyridin-3-one hydrochloride]",Ki,D2 receptor,0.362 ± 0.017 µM
same,Ki,5-HT1A receptor,0.027 ± 0.003 µM
same,Ki,5-HT6 receptor,2.06 ± 0.173 µM
same,Ki,5-HT2A receptor,0.234 ± 0.046 µM
same,Ki,5-HT7 receptor,0.435 ± 0.061 µM
"O=c1n(CCCCCCN2CCN(c3ccc(Cl)c(Cl)c3)CC2)nc2ccccn12 [10h, 2-[6-[4-(3,4-dichlorophenyl)piperazin-1-yl]hexyl]-[1,2,4]triazolo[4,3-a]pyridin-3-one hydrochloride]",Ki,D2 receptor,0.31 ± 0.042 µM
same,Ki,5-HT1A receptor,0.019 ± 0.003 µM
same,Ki,5-HT6 receptor,0.576 ± 0.082 µM
same,Ki,5-HT2A receptor,0.077 ± 0.014 µM
same,Ki,5-HT7 receptor,0.196 ± 0.029 µM
"O=c1n(CCCCCCN2CCN(c3ccccc3F)CC2)nc2ccccn12 [10i, 2-[6-[4-(2-fluorophenyl)piperazin-1-yl]hexyl]-[1,2,4]triazolo[4,3-a]pyridin-3-one hydrochloride]",Ki,D2 receptor,0.195 ± 0.011 µM
same,Ki,5-HT1A receptor,0.007 ± 0.002 µM
same,Ki,5-HT6 receptor,4.74 ± 0.687 µM
same,Ki,5-HT2A receptor,0.417 ± 0.052 µM
same,Ki,5-HT7 receptor,0.993 ± 0.214 µM
"COc1ccccc1N1CCN(CCCCCCn2nc3ccccn3c2=O)CC1 [10j, 2-[6-[4-(2-methoxyphenyl)piperazin-1-yl]hexyl]-[1,2,4]triazolo[4,3-a]pyridin-3-one hydrochloride]",Ki,D2 receptor,0.057 ± 0.006 µM
same,Ki,5-HT1A receptor,0.004 ± 0.001 µM
same,Ki,5-HT6 receptor,11.5 µM
same,Ki,5-HT2A receptor,0.841 ± 0.105 µM
same,Ki,5-HT7 receptor,0.219 ± 0.036 µM
"COc1cccc(N2CCN(CCCCCCn3nc4ccccn4c3=O)CC2)c1 [10k, 2-[6-[4-(3-methoxyphenyl)piperazin-1-yl]hexyl]-[1,2,4]triazolo[4,3-a]pyridin-3-one hydrochloride]",Ki,D2 receptor,0.021 ± 0.003 µM
same,Ki,5-HT1A receptor,0.009 ± 0.002 µM
same,Ki,5-HT6 receptor,3.5 ± 0.537 µM
same,Ki,5-HT2A receptor,0.343 ± 0.021 µM
same,Ki,5-HT7 receptor,1.02 ± 0.184 µM
"COc1ccc(N2CCN(CCCCCCn3nc4ccccn4c3=O)CC2)cc1 [10l, 2-[6-[4-(4-methoxyphenyl)piperazin-1-yl]hexyl]-[1,2,4]triazolo[4,3-a]pyridin-3-one hydrochloride]",Ki,D2 receptor,0.35 ± 0.054 µM
same,Ki,5-HT1A receptor,0.826 ± 0.091 µM
same,Ki,5-HT6 receptor,5.62 ± 0.743 µM
same,Ki,5-HT2A receptor,3.9 ± 0.432 µM
same,Ki,5-HT7 receptor,8.3 ± 1.35 µM
"CCOc1ccccc1N1CCN(CCCCCCn2nc3ccccn3c2=O)CC1 [10m, 2-[6-[4-(2-ethoxyphenyl)piperazin-1-yl]hexyl]-[1,2,4]triazolo[4,3-a]pyridin-3-one hydrochloride]",Ki,D2 receptor,1.64 ± 0.219 µM
same,Ki,5-HT1A receptor,0.009 ± 0.002 µM
same,Ki,5-HT6 receptor,4.82 ± 0.581 µM
same,Ki,5-HT2A receptor,1.54 ± 0.225 µM
same,Ki,5-HT7 receptor,0.251 ± 0.052 µM
"O=c1n(CCCCCCN2CCN(c3ccccn3)CC2)nc2ccccn12 [10n, 2-[6-[4-(2-pyridyl)piperazin-1-yl]hexyl]-[1,2,4]triazolo[4,3-a]pyridin-3-one hydrochloride]",Ki,D2 receptor,0.01 ± 0.002 µM
same,Ki,5-HT1A receptor,0.018 ± 0.003 µM
same,Ki,5-HT6 receptor,4.64 ± 0.341 µM
same,Ki,5-HT2A receptor,1.72 ± 0.193 µM
same,Ki,5-HT7 receptor,1.05 ± 0.091 µM
"O=c1n(CCCCCCN2CCN(c3ncccn3)CC2)nc2ccccn12 [10o, 2-[6-(4-pyrimidin-2-ylpiperazin-1-yl)hexyl]-[1,2,4]triazolo[4,3-a]pyridin-3-one hydrochloride]",Ki,D2 receptor,0.202 ± 0.031 µM
same,Ki,5-HT1A receptor,0.104 ± 0.012 µM
same,Ki,5-HT6 receptor,7.22 ± 0.827 µM
same,Ki,5-HT2A receptor,10.6 µM
same,Ki,5-HT7 receptor,5.57 ± 0.438 µM
"O=c1n(CCCCCCN2CCN(c3ccccc3)CC2)nc2ccccn12 [10p, 2-[6-(4-phenylpiperazin-1-yl)hexyl]-[1,2,4]triazolo[4,3-a]pyridin-3-one hydrochloride]",Ki,D2 receptor,1.53 ± 0.116 µM
same,Ki,5-HT1A receptor,0.028 ± 0.004 µM
same,Ki,5-HT6 receptor,3.33 ± 0.197 µM
same,Ki,5-HT2A receptor,0.391 ± 0.027 µM
same,Ki,5-HT7 receptor,0.404 ± 0.067 µM
"O=c1n(CCCCCCN2CCN(c3ccccc3-c3ccccc3)CC2)nc2ccccn12 [10r, 2-[6-[4-(2-phenylphenyl)piperazin-1-yl]hexyl]-[1,2,4]triazolo[4,3-a]pyridin-3-one hydrochloride]",Ki,D2 receptor,0.191 ± 0.014 µM
same,Ki,5-HT1A receptor,0.02 ± 0.003 µM
same,Ki,5-HT6 receptor,1.19 ± 0.165 µM
same,Ki,5-HT2A receptor,0.328 ± 0.049 µM
same,Ki,5-HT7 receptor,0.019 ± 0.003 µM

# — paper PMC6515286 (Molecules, 2019)
